{
  "source": "paper PMC12037037",
  "about": "(Proceedings of the National Academy of Sciences of the …, 2025)",
  "test_system": "male Sprague Dawley rats",
  "experiment": "Rat forced swim test (FST)",
  "assay_type": "in vivo",
  "details": "for Swimming (Figure 6B) / Immobility (Figure 6B): 24 h after administration; for Swimming (Figure 6B): VEH 22.10 ± 1.929; for Immobility (Figure 6B): VEH 37.20 ± 1.867",
  "experimental": "Reads were aligned to the GRCm39 genome assembly using STAR, processed with Picard, and counted with the Subread software. Transcript inclusion criteria consisted of a minimum raw expression level of 25 transcripts in a minimum of 4 samples. Surrogate variable analysis was conducted with the sva package 2023 release v3.5.0 in R and normalization and differential expression analysis was performed with DESeq2 v4.3 with a baseMean threshold of 10. Heatmaps were created with the pheatmap v1.0.12 with sample-wise z-scores plotted and both row and column grouping allowed using pearson's distances and ward.D for clustering. Gene-wise selection criteria for heatmaps were a baseMean expression threshold of 50 to focus on robustly expressed genes, p value < 0.05, and presence in the top 250 genes sorted by absolute value of log2FC. Additionally, z score was capped at 2 for visualization purposes. Schizophrenia gene sets were extracted from a recent TWAS study (30).\nFor Figure S8G, the TWAS set was filtered for FDR < 0.01. Permutation testing was conducted to quantify the overlap of top genes from schizophrenia TWAS with the perm_test function from the bulkWarehouse package 2023 release v1.2.7.\nBriefly, the intersection of top differentially expressed genes and top TWAS genes is compared to an empirical distribution created by calculating the intersection with our top DEGs when randomly sampling candidate genes from our dataset equal to the size of the TWAS sample. Selection criteria from the TWAS include an expression level of 25 transcripts in a minimum of 4 samples in our dataset, FDR < 0.01 from the TWAS and top 250 sorted by absolute value of log2FC. Selection criteria from our gene set were an expression level of 25 transcripts in a minimum of 4 samples, p value < 0.1 and top 250 sorted by absolute value of log2FC.\nRat Forced Swim Test (FST). This study was performed by Psychogenics (Paramus, NJ). Male Sprague Dawley rats were purchased from Envigo (Indianapolis, IN), and were 8 weeks old at the time of the experiments. Upon receipt, they were assigned unique identification numbers (tail marked) and group housed in ventilated cages with 3 rats per cage. All animals […]\nremained housed in groups of three for the remainder of the study. All rats were acclimated to the colony room for up to one week prior to dosing. During the period of acclimation, rats were examined and handled daily, and weighed to assure adequate health and suitability. The room temperature was maintained between 20 °C and 23 °C with a relative humidity of 30%–70%. Lab Rodent Diet 5001 (W.F. Fisher, Cat # 11015) and water were provided ad libitum. Animals were randomly assigned across treatment groups. All testing was performed during the light phase of the light/dark cycle. Behavioral testing was conducted according to established protocols approved by the IACUC committee and PGI Standard Operation Procedures (SOP). Each forced swim chamber was constructed of clear acrylic (height = 40 cm; diameter = 20.3 cm). Only one rat was placed in the swim chamber at a time for each swim test. The water was changed and the chamber cleaned between each animal. The water depth was 16 cm in the first swim session (pre-test) and 30 cm in the second swim session (test). The water was maintained at 23 °C ± 1 °C for all swim sessions. At the end of each swim test rats were dried with paper towels and returned to the home cage. All animals were carefully monitored to ensure their safety in the swim test and any animal unable to maintain a posture with its nose above water was immediately removed from the water and not used further in the study. Animals were first subjected to a pre-test for 15 min. Immediately after the pre-test, they were administered compounds or VEH via i.p. injection (1 ml/kg). Racemic ketamine hydrochloride (10 mg/kg) was used as a positive control. A salt correction factor of 1.36 was used when preparing formulations of (+)-JRT to ensure that the dose corresponded to that of the free base. […]",
  "data": [
    {"smiles": "CCN(CC)C(=O)[C@@H]1C=C2c3cccc4ccn(c34)C[C@H]2N(C)C1", "note": "[(+)-JRT]", "values": [
      {"measurement": "Swimming (Figure 6B)", "setting": "0.3mg/kg IP", "result": "31.70 ± 2.534"},
      {"measurement": "Immobility (Figure 6B)", "setting": "0.3mg/kg IP", "result": "27.20 ± 2.546"},
      {"measurement": "Swimming (Figure 6B)", "setting": "1.0mg/kg IP", "result": "31.50 ± 1.778"},
      {"measurement": "Immobility (Figure 6B)", "setting": "1.0mg/kg IP", "result": "27.70 ± 1.850"},
      {"measurement": "Potency relative to ketamine in the forced swim test", "setting": "lowest effective dose not determined", "result": "at least 100 fold"}
    ]}
  ]
}
